Source: patent US20100081718A1, “CO[…]-2-DELTA LIGANDS” (Pfizer Inc, priority 2003, published 2010)
Structures can show the parent of a compound that is named as a salt.

Assays:
[1] = Plasma concentration (Cmax) of gabapentin in the rat

SMILES	melting point	Cmax [1]
CCC[C@@H](C)C[C@H](N)CC(=O)O.Cl	142.5 to 142.7 °C	–
CCCC[C@@H](C)C[C@H](N)CC(=O)O (as salt: hydrochloride)	142.5 to 143.3 °C	–
NCC1(CC(=O)O)CCCCC1 [gabapentin, 1-(aminomethyl)-cyclohexylacetic acid]	–	520 to 10500 ng/mL
